Data: PubChem BioAssay (NCI)
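Grown in 96-well plates, cells were treated for 48 hours with each compound at five concentrations. Insufficient inhibition: endpoint recorded as highest concentration tested. The concentration for 50% growth inhibition is given as GI50. TGI marks complete inhibition of growth.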

Legend:
Test in all cases: DTP human tumour cell line panel, 48 h
786-0 renal = system: 786-0 renal
A498 renal = system: A498 renal
A549 NSCLC = system: A549 NSCLC
ACHN renal = system: ACHN renal
BT-549 breast = system: BT-549 breast
CAKI-1 renal = system: CAKI-1 renal
CCRF-CEM leukemia = system: CCRF-CEM leukemia
COLO 205 colon = system: COLO 205 colon
DU-145 prostate = system: DU-145 prostate
EKVX NSCLC = system: EKVX NSCLC
HCC-2998 colon = system: HCC-2998 colon
HCT-116 colon = system: HCT-116 colon
HCT-15 colon = system: HCT-15 colon
HL-60(TB) leukemia = system: HL-60(TB) leukemia
HOP-62 NSCLC = system: HOP-62 NSCLC
HOP-92 NSCLC = system: HOP-92 NSCLC
HS 578T breast = system: HS 578T breast
HT29 colon = system: HT29 colon
IGROV1 ovarian = system: IGROV1 ovarian
K-562 leukemia = system: K-562 leukemia
KM12 colon = system: KM12 colon
LOX IMVI melanoma = system: LOX IMVI melanoma
M14 melanoma = system: M14 melanoma
MALME-3M melanoma = system: MALME-3M melanoma
MCF7 breast = system: MCF7 breast
MDA-MB-231 breast = system: MDA-MB-231 breast
MDA-MB-435 = system: MDA-MB-435
MOLT-4 leukemia = system: MOLT-4 leukemia
NCI-H23 lung = system: NCI-H23 lung
NCI-H460 lung = system: NCI-H460 lung
NCI-H522 lung = system: NCI-H522 lung
NCI/ADR-RES ovarian = system: NCI/ADR-RES ovarian
OVCAR-3 ovarian = system: OVCAR-3 ovarian
OVCAR-4 ovarian = system: OVCAR-4 ovarian
OVCAR-5 ovarian = system: OVCAR-5 ovarian
OVCAR-8 ovarian = system: OVCAR-8 ovarian
PC-3 prostate = system: PC-3 prostate
RPMI-8226 leukemia = system: RPMI-8226 leukemia
RXF 393 renal = system: RXF 393 renal
SF-268 CNS = system: SF-268 CNS
SF-295 CNS = system: SF-295 CNS
SF-539 CNS = system: SF-539 CNS
SK-MEL-2 melanoma = system: SK-MEL-2 melanoma
SK-MEL-28 melanoma = system: SK-MEL-28 melanoma
SK-MEL-5 melanoma = system: SK-MEL-5 melanoma
SK-OV-3 ovarian = system: SK-OV-3 ovarian
SN12C renal = system: SN12C renal
SNB-19 CNS = system: SNB-19 CNS
SNB-75 CNS = system: SNB-75 CNS
SR leukemia = system: SR leukemia
SW-620 colon = system: SW-620 colon
T-47D breast = system: T-47D breast
TK-10 renal = system: TK-10 renal
U251 CNS = system: U251 CNS
UACC-257 melanoma = system: UACC-257 melanoma
UACC-62 melanoma = system: UACC-62 melanoma
UO-31 renal = system: UO-31 renal
NCI-H226 lung = system: NCI-H226 lung

CC[C@@H](C(=O)[C@@H](C)[C@@H](O)[C@H](C)[C@@H]1O[C@@H]([C@@H](CC)C(=O)O)CC[C@@H]1C)[C@H]1OC2(C=C[C@@H](O)[C@]3(CC[C@@](C)([C@H]4CC[C@](O)(CC)[C@H](C)O4)O3)O2)[C@H](C)C[C@@H]1C (some centres undefined)
GI50 (786-0 renal): 589 nM | TGI (786-0 renal): 12400 nM | GI50 (A498 renal): 27.6 nM | TGI (A498 renal): 458 nM | GI50 (A549 NSCLC): 233 nM | TGI (A549 NSCLC): 9770 nM | GI50 (ACHN renal): 1680 nM | TGI (ACHN renal): > 50000 nM | GI50 (BT-549 breast): 233 nM | TGI (BT-549 breast): 2970 nM | GI50 (CAKI-1 renal): 1200 nM | TGI (CAKI-1 renal): > 50000 nM | GI50 (CCRF-CEM leukemia): 285 nM | TGI (CCRF-CEM leukemia): 10700 nM | GI50 (COLO 205 colon): 124 nM | TGI (COLO 205 colon): 5470 nM | GI50 (DU-145 prostate): 1580 nM | TGI (DU-145 prostate): > 50000 nM | GI50 (EKVX NSCLC): 220 nM | TGI (EKVX NSCLC): > 32000 nM | GI50 (HCC-2998 colon): 105 nM | TGI (HCC-2998 colon): 10500 nM | GI50 (HCT-116 colon): 359 nM | TGI (HCT-116 colon): 14400 nM | GI50 (HCT-15 colon): 1420 nM | TGI (HCT-15 colon): > 50000 nM | GI50 (HL-60(TB) leukemia): 89.4 nM | TGI (HL-60(TB) leukemia): 316 nM | GI50 (HOP-62 NSCLC): 447 nM | TGI (HOP-62 NSCLC): 20700 nM | GI50 (HOP-92 NSCLC): 82.9 nM | TGI (HOP-92 NSCLC): 5450 nM | GI50 (HS 578T breast): 311 nM | TGI (HS 578T breast): > 50000 nM | GI50 (HT29 colon): 231 nM | TGI (HT29 colon): 19700 nM | GI50 (IGROV1 ovarian): 1840 nM | TGI (IGROV1 ovarian): > 50000 nM | GI50 (K-562 leukemia): 213 nM | TGI (K-562 leukemia): 3390 nM | GI50 (KM12 colon): 766 nM | TGI (KM12 colon): 8430 nM | GI50 (LOX IMVI melanoma): 505 nM | TGI (LOX IMVI melanoma): > 19000 nM | GI50 (M14 melanoma): 790 nM | TGI (M14 melanoma): 1880 nM | GI50 (MALME-3M melanoma): 224 nM | TGI (MALME-3M melanoma): 860 nM | GI50 (MCF7 breast): 154 nM | TGI (MCF7 breast): > 39200 nM | GI50 (MDA-MB-231 breast): 239 nM | TGI (MDA-MB-231 breast): 17100 nM | GI50 (MDA-MB-435): 568 nM | TGI (MDA-MB-435): 1510 nM | GI50 (MOLT-4 leukemia): 726 nM | TGI (MOLT-4 leukemia): 2500 nM | GI50 (NCI-H23 lung): 207 nM | TGI (NCI-H23 lung): 15400 nM | GI50 (NCI-H460 lung): 324 nM | TGI (NCI-H460 lung): 7790 nM | GI50 (NCI-H522 lung): 77.4 nM | TGI (NCI-H522 lung): 605 nM | GI50 (NCI/ADR-RES ovarian): 434 nM | TGI (NCI/ADR-RES ovarian): > 50000 nM | GI50 (OVCAR-3 ovarian): 101 nM | TGI (OVCAR-3 ovarian): 15100 nM | GI50 (OVCAR-4 ovarian): 3010 nM | TGI (OVCAR-4 ovarian): 49300 nM | GI50 (OVCAR-5 ovarian): 7870 nM | TGI (OVCAR-5 ovarian): > 50000 nM | GI50 (OVCAR-8 ovarian): 823 nM | TGI (OVCAR-8 ovarian): > 48300 nM | GI50 (PC-3 prostate): 40.8 nM | TGI (PC-3 prostate): > 50000 nM | GI50 (RPMI-8226 leukemia): 117 nM | TGI (RPMI-8226 leukemia): 4480 nM | GI50 (RXF 393 renal): 48.5 nM | TGI (RXF 393 renal): 1850 nM | GI50 (SF-268 CNS): 1700 nM | TGI (SF-268 CNS): 26300 nM | GI50 (SF-295 CNS): 263 nM | TGI (SF-295 CNS): 19800 nM | GI50 (SF-539 CNS): 434 nM | TGI (SF-539 CNS): 8850 nM | GI50 (SK-MEL-2 melanoma): 622 nM | TGI (SK-MEL-2 melanoma): 2000 nM | GI50 (SK-MEL-28 melanoma): 630 nM | TGI (SK-MEL-28 melanoma): 1310 nM | GI50 (SK-MEL-5 melanoma): 160 nM | TGI (SK-MEL-5 melanoma): 534 nM | GI50 (SK-OV-3 ovarian): 1760 nM | TGI (SK-OV-3 ovarian): 22600 nM | GI50 (SN12C renal): 140 nM | TGI (SN12C renal): > 50000 nM | GI50 (SNB-19 CNS): 577 nM | TGI (SNB-19 CNS): > 14200 nM | GI50 (SNB-75 CNS): 1200 nM | TGI (SNB-75 CNS): > 24200 nM | GI50 (SR leukemia): 81.5 nM | TGI (SR leukemia): 1780 nM | GI50 (SW-620 colon): 733 nM | TGI (SW-620 colon): 9140 nM | GI50 (T-47D breast): 174 nM | TGI (T-47D breast): 10400 nM | GI50 (TK-10 renal): 1250 nM | TGI (TK-10 renal): 20100 nM | GI50 (U251 CNS): 135 nM | TGI (U251 CNS): 5560 nM | GI50 (UACC-257 melanoma): 241 nM | TGI (UACC-257 melanoma): 5490 nM | GI50 (UACC-62 melanoma): 701 nM | TGI (UACC-62 melanoma): 1550 nM | GI50 (UO-31 renal): 1270 nM | TGI (UO-31 renal): > 41400 nM

CCOC(=O)c1cc(C2CCN(Cc3ccccc3)C2=O)c(C(=O)C(=[N+]=[N-])C(C)=O)[nH]1 (centres undefined)
TGI (786-0 renal): > 100000 nM | TGI (A498 renal): > 100000 nM | TGI (A549 NSCLC): > 100000 nM | TGI (BT-549 breast): > 100000 nM | TGI (CAKI-1 renal): > 100000 nM | TGI (CCRF-CEM leukemia): > 100000 nM | TGI (COLO 205 colon): > 100000 nM | TGI (DU-145 prostate): > 100000 nM | TGI (EKVX NSCLC): > 100000 nM | TGI (HCC-2998 colon): > 100000 nM | TGI (HCT-116 colon): > 100000 nM | TGI (HCT-15 colon): > 100000 nM | TGI (HL-60(TB) leukemia): > 100000 nM | TGI (HOP-62 NSCLC): > 100000 nM | TGI (HOP-92 NSCLC): > 100000 nM | TGI (HS 578T breast): > 100000 nM | TGI (HT29 colon): > 100000 nM | TGI (IGROV1 ovarian): > 100000 nM | TGI (K-562 leukemia): > 100000 nM | TGI (KM12 colon): > 100000 nM | TGI (LOX IMVI melanoma): > 100000 nM | TGI (M14 melanoma): > 100000 nM | TGI (MALME-3M melanoma): > 100000 nM | TGI (MCF7 breast): > 100000 nM | TGI (MDA-MB-231 breast): > 100000 nM | TGI (MDA-MB-435): > 100000 nM | TGI (MOLT-4 leukemia): > 100000 nM | TGI (NCI-H226 lung): > 100000 nM | TGI (NCI-H23 lung): > 100000 nM | TGI (NCI-H460 lung): > 100000 nM | TGI (NCI/ADR-RES ovarian): > 100000 nM | TGI (OVCAR-3 ovarian): > 100000 nM | TGI (OVCAR-4 ovarian): > 100000 nM | TGI (OVCAR-5 ovarian): > 100000 nM | TGI (OVCAR-8 ovarian): > 100000 nM | TGI (PC-3 prostate): > 100000 nM | TGI (RPMI-8226 leukemia): > 100000 nM | TGI (RXF 393 renal): > 100000 nM | TGI (SF-268 CNS): > 100000 nM | TGI (SF-295 CNS): > 100000 nM | TGI (SF-539 CNS): > 100000 nM | TGI (SK-MEL-2 melanoma): > 100000 nM | TGI (SK-MEL-28 melanoma): > 100000 nM | TGI (SK-MEL-5 melanoma): > 100000 nM | TGI (SK-OV-3 ovarian): > 100000 nM | TGI (SN12C renal): > 100000 nM | TGI (SNB-19 CNS): > 100000 nM | TGI (SNB-75 CNS): > 100000 nM | TGI (SR leukemia): > 100000 nM | TGI (SW-620 colon): > 100000 nM | TGI (T-47D breast): > 100000 nM | TGI (U251 CNS): > 100000 nM | TGI (UACC-257 melanoma): > 100000 nM | TGI (UACC-62 melanoma): > 100000 nM | TGI (UO-31 renal): > 100000 nM
